{
  "source": "patent US7666883B2",
  "about": "“Antimalarial Baylis-Hillman adducts and a process for the preparation thereof” (Council of Scientific and Industrial Research, priority 2005, dated 2010)",
  "format_in_all_cases": "cell-based",
  "key": {"[1]": {"system": "Chloroquine sensitive (CQS) P. falciparum strain", "test": "Schizont maturation inhibition (SMI), chloroquine sensitive strain", "details": "Plasmodium falciparum, schizont maturation inhibition determined after 24 hr", "protocol": "(§1) Parasites were cultured in O (+) erythrocytes in RPMI-1640 media supplemented with 25 mM HEPES buffer and 10% AB (+) serum by candlejar technique.^9 Initial culture was maintained in small vials (2.5 cm dia.) with 10% haematocrit, i.e. 10 μl erythrocytes containing 1.5% ring stage parasite in 100 μl complete media. The culture volume per well for the assay was 100 μl. Parasitamia was determined for each set of culture, number of parasites for the assay were adjusted at 1 to 1.5% by diluting with fresh O (+) RBC. Assay was done in 96 well microtitre flat-bottomed tissue culture plates. Parasite culture was synchronized at ring forms using density gradient method^10 and cultured for 24 h. in the presence of various doses of compounds and chloroquine for their effect in schizont maturation. Test was done in duplicate wells for each dose of the drugs. Control culture was done with RPMI-164 containing 10% AB (+) serum. Growth of the parasites from duplicate wells of each concentration was monitored in JSB stained^11 blood smears by counting number of schizont per 200 asexual parasites. Percent schizont maturation inhibition was calculated by the formula: (1−Nt/Nc)×100 where, Nt and Nc represent the number of schizont in the test and control well respectively."}, "[2]": {"system": "Chloroquine resistant (CQR) P. falciparum strain", "test": "Total parasite growth inhibition (PGI), chloroquine resistant strain", "details": "Plasmodium falciparum, total parasite growth inhibition determined after 48 hr"}, "[3]": {"system": "Chloroquine resistant (CQR) P. falciparum strain", "test": "Schizont maturation inhibition (SMI), chloroquine resistant strain", "details": "Plasmodium falciparum, schizont maturation inhibition determined after 24 hr", "protocol": "as §1"}, "[4]": {"system": "Chloroquine sensitive (CQS) P. falciparum strain", "test": "Total parasite growth inhibition (PGI), chloroquine sensitive strain", "details": "Plasmodium falciparum, total parasite growth inhibition determined after 48 hr"}},
  "data": [
    {"smiles": "C=C(C#N)C(O)c1cc(CC)cnc1Cl", "note": "(stereo not drawn) [Ib, 2-[(2-Chloro-5-ethylpyridine-3-yl)(hydroxy)methyl]acrylonitrile]", "values": [
      {"measurement": "IC50", "setting": "[1]", "result": 1.8, "unit": "µg/mL"},
      {"measurement": "IC90", "setting": "[1]", "result": 15.5, "unit": "µg/mL"},
      {"measurement": "IC50", "setting": "[2]", "result": 5.5, "unit": "µg/mL"},
      {"measurement": "IC90", "setting": "[2]", "result": 26, "unit": "µg/mL"},
      {"measurement": "IC50", "setting": "[3]", "result": 2.5, "unit": "µg/mL"},
      {"measurement": "IC90", "setting": "[3]", "result": 6.5, "unit": "µg/mL"},
      {"measurement": "IC50", "setting": "[4]", "result": 4, "unit": "µg/mL"},
      {"measurement": "IC90", "setting": "[4]", "result": 31, "unit": "µg/mL"}
    ]},
    {"smiles": "C=C(C(=O)OC)C(O)c1cc(C)cnc1Cl", "note": "(stereo not drawn) [Ie, Methyl 2-[(2-chloro-5-methylpyridine-3-)(hydroxy)methyl]acrylate]", "values": [
      {"measurement": "IC50", "setting": "[1]", "result": 18, "unit": "µg/mL"},
      {"measurement": "IC90", "setting": "[1]", "result": 32, "unit": "µg/mL"},
      {"measurement": "IC50", "setting": "[2]", "result": 5.75, "unit": "µg/mL"},
      {"measurement": "IC90", "setting": "[2]", "result": 27.5, "unit": "µg/mL"},
      {"measurement": "IC50", "setting": "[3]", "result": 3.05, "unit": "µg/mL"},
      {"measurement": "IC90", "setting": "[3]", "result": 7, "unit": "µg/mL"},
      {"measurement": "IC50", "setting": "[4]", "result": 28.5, "unit": "µg/mL"},
      {"measurement": "IC90", "setting": "[4]", "result": 115, "unit": "µg/mL"}
    ]},
    {"smiles": "C=C(C(=O)OC)C(O)c1cc(-c2ccccc2)cnc1Cl", "note": "(stereo not drawn) [If, Methyl 2-[(2-chloro-5-phenylpyridine-3-yl)(hydroxy)methyl]acrylate]", "values": [
      {"measurement": "IC50", "setting": "[1]", "result": 45, "unit": "µg/mL"},
      {"measurement": "IC90", "setting": "[1]", "result": 125, "unit": "µg/mL"},
      {"measurement": "IC50", "setting": "[2]", "result": 10.8, "unit": "µg/mL"},
      {"measurement": "IC90", "setting": "[2]", "result": 77.5, "unit": "µg/mL"},
      {"measurement": "IC50", "setting": "[3]", "result": 5, "unit": "µg/mL"},
      {"measurement": "IC90", "setting": "[3]", "result": 30, "unit": "µg/mL"},
      {"measurement": "IC50", "setting": "[4]", "result": 115, "unit": "µg/mL"},
      {"measurement": "IC90", "setting": "[4]", "result": 350, "unit": "µg/mL"}
    ]},
    {"smiles": "C=C(C#N)C(O)c1cc(C)cnc1Cl", "note": "(stereo not drawn) [Ia, 2-[(2-Chloro-5-methylpyridine-3-yl)(hydroxy)methyl]acrylonitrile]", "values": [
      {"measurement": "IC50", "setting": "[1]", "result": 1.25, "unit": "µg/mL"},
      {"measurement": "IC90", "setting": "[1]", "result": 25.5, "unit": "µg/mL"},
      {"measurement": "IC50", "setting": "[2]", "result": 10.5, "unit": "µg/mL"},
      {"measurement": "IC90", "setting": "[2]", "result": 300, "unit": "µg/mL"},
      {"measurement": "IC50", "setting": "[3]", "result": 22.5, "unit": "µg/mL"},
      {"measurement": "IC90", "setting": "[3]", "result": 125, "unit": "µg/mL"},
      {"measurement": "IC50", "setting": "[4]", "result": 1.3, "unit": "µg/mL"},
      {"measurement": "IC90", "setting": "[4]", "result": 85, "unit": "µg/mL"}
    ]},
    {"smiles": "C=C(C#N)C(O)c1cc(-c2ccccc2)cnc1Cl", "note": "(stereo not drawn) [Ic, 2-[(2-Chloro-5-phenylpyridine-3-yl)(hydroxy)methyl]acrylonitrile]", "values": [
      {"measurement": "IC50", "setting": "[1]", "result": 3.6, "unit": "µg/mL"},
      {"measurement": "IC90", "setting": "[1]", "result": 25.5, "unit": "µg/mL"},
      {"measurement": "IC50", "setting": "[2]", "result": 2.2, "unit": "µg/mL"},
      {"measurement": "IC90", "setting": "[2]", "result": 6.75, "unit": "µg/mL"},
      {"measurement": "IC50", "setting": "[3]", "result": 0.9, "unit": "µg/mL"},
      {"measurement": "IC90", "setting": "[3]", "result": 1.5, "unit": "µg/mL"},
      {"measurement": "IC50", "setting": "[4]", "result": 8, "unit": "µg/mL"},
      {"measurement": "IC90", "setting": "[4]", "result": 23, "unit": "µg/mL"}
    ]},
    {"smiles": "C=C(C#N)C(O)c1ccc(C(=O)OC)nc1Cl", "note": "(stereo not drawn) [Id, Methyl 6-chloro-5-(2-cyano-1-hydroxyallyl) 2-pyridine carboxylate]", "values": [
      {"measurement": "IC50", "setting": "[1]", "result": 3.4, "unit": "µg/mL"},
      {"measurement": "IC90", "setting": "[1]", "result": 22, "unit": "µg/mL"},
      {"measurement": "IC50", "setting": "[2]", "result": 6.75, "unit": "µg/mL"},
      {"measurement": "IC90", "setting": "[2]", "result": 29, "unit": "µg/mL"},
      {"measurement": "IC50", "setting": "[3]", "result": 5.75, "unit": "µg/mL"},
      {"measurement": "IC90", "setting": "[3]", "result": 25.5, "unit": "µg/mL"},
      {"measurement": "IC50", "setting": "[4]", "result": 7, "unit": "µg/mL"},
      {"measurement": "IC90", "setting": "[4]", "result": 29, "unit": "µg/mL"}
    ]}
  ]
}
